The values that follow come from patent US20250312499A1, “KISSPEPTIN RECEPTOR (KISS1R) TARGETED THERAPEUTICS AND USES THEREOF” (priority 2024, published 2025).

The term pKi denotes the negative decadic logarithm of the Ki, by convention in mol/L.

pKi: −log10 of the molar value. Numbered stars: 1 amine (or outer) side, 2 acyl side, 3 side chain; on linkers, the order of the positions; unused ones are H or OH. Square brackets hold non-standard residues; d marks the D form. Peptide text beside a SMILES is read from it. * marks the point of attachment. DOTA = O=C(O)CN1CCN(CC(=O)O)CCN(CC(=O)*)CCN(CC(=O)O)CC1; Gly(N-(3-F-4-Me-benzyl)) = Cc1ccc(CNCC(=O)*)cc1F; Gly(Nα-4-MeO-benzyl) = COc1ccc(CNCC(=O)*)cc1; Api(1-amidino) = N=C(N)N1CCC(N)(C(=O)O)CC1; Hydrocinnamoyl(4-Me) = Cc1ccc(CCC(=O)*)cc1; Phe(3-F) = N[C@@H](Cc1cccc(F)c1)C(=O)O; 2Nal = N[C@@H](Cc1ccc2ccccc2c1)C(=O)O; Trx = NC[C@H]1CC[C@H](C(=O)O)CC1; X1 = O=C(CN1CCC(N[*:1])CC1)[*:2]; 4Pal = N[C@@H](Cc1ccncc1)C(=O)O; d4Pal = N[C@H](Cc1ccncc1)C(=O)O; Cha = N[C@@H](CC1CCCCC1)C(=O)O; 4Amb = NCc1ccc(C(=O)O)cc1; Octanoyl = CCCCCCCC(=O)*; Api = NC1(C(=O)O)CCNCC1; PEG2 = NCCOCCOCCC(=O)O; Ahx = NCCCCCC(=O)O; azaGly = NNC(=O)O; Sar = CNCC(=O)O Some results are limits rather than exact numbers.

The assay has as its target human kisspeptin receptor (Homo sapiens (Human), UniProt Q969F8). Description: Human KISS1R binding assay (membrane competition binding). To be noted: 90 min at room temperature; competition with 0.2 nM [125I]-metastin (45-54); Flp-In T-Rex 293 kisspeptin membranes; metal complexes nonradioactive Ga, In, Lu; read-out: hKiSSR Binding Ki (90 min). An outline of the steps:
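Membranes from tetracycline-induced (48 h) Flp-In T-Rex 293 cells expressing receptor, 5–10 μg, incubated 90 min at room temperature with 0.2 nM [125I]-metastin (45-54) and competitor (typically 0–10,000 nM) in Tris/Mg/Ca/EGTA/0.1% BSA, pH 7.4. Filtration, washing, counting; Ki by non-linear regression.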

human kisspeptin receptor, sequence (Q969F8 whole entry): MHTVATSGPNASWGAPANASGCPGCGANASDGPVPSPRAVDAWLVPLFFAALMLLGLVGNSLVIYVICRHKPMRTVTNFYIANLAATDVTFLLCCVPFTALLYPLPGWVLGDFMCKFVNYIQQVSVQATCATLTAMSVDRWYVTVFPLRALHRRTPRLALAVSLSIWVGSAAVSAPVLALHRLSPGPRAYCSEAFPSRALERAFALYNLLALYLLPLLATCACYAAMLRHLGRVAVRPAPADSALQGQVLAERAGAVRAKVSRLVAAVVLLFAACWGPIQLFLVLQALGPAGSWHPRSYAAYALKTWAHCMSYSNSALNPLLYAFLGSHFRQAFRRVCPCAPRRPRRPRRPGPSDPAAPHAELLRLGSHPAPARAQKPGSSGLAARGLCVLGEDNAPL

As for `CNCC(=O)N1CCC(NC(=O)[C@H](CC(C)C)NC(=O)NNC(=O)[C@H](CC2CCCCC2)NC(=O)[C@@H](NC(=O)[C@H](CC(N)=O)NC(=O)[C@@H](CCCCNC(=O)CN2CCN(CC(=O)O)CCN(CC(=O)O)CCN(CC(=O)O)CC2)NC(=O)[C@@H](Cc2ccc(O)cc2)NC(=O)CCOCCOCCNC(=O)CCc2ccc(C)cc2)[C@@H](C)O)(C(=O)N[C@H](Cc2c[nH]c3ccccc23)C(N)=O)CC1` [Compound 358] ({Hydrocinnamoyl(4-Me)-PEG2}-[dY][dK](DOTA)NT[Cha][azaGly]L[Api](Sar)[dW]-NH2), the pKi is more than 8.00. Under `CC(C)C[C@H](NC(=O)NNC(=O)[C@H](Cc1ccccc1)NC(=O)CCCCCNC(=O)[C@H](Cc1ccc2ccccc2c1)NC(=O)[C@@H](Cc1ccc(O)cc1)NC(=O)CN1CCN(CC(=O)O)CCN(CC(=O)O)CCN(CC(=O)O)CC1)C(=O)NC1(C(=O)N[C@@H](Cc2c[nH]c3ccccc23)C(N)=O)CCN(C(=N)N)CC1` [Compound 287] ({DOTA}-[dY][2Nal][Ahx]F[azaGly]L[Api(1-amidino)]W-NH2) stands 7.00 to 8.00; under `CC(C)C[C@H](NC(=O)NNC(=O)[C@H](Cc1ccccc1)NC(=O)[C@@H](NC(=O)[C@H](CC(N)=O)NC(=O)[C@H](Cc1ccc2ccccc2c1)NC(=O)[C@@H](Cc1ccc(O)cc1)NC(=O)CCCCCNC(=O)CN1CCN(CC(=O)O)CCN(CC(=O)O)CCN(CC(=O)O)CC1)[C@@H](C)O)C(=O)NC1(C(=O)N[C@@H](Cc2ccccc2)C(N)=O)CCN(C(=N)N)CC1` [Compound 277] ({DOTA-Ahx}-[dY][2Nal]NTF[azaGly]L[Api(1-amidino)]F-NH2), more than 8.00; under `CNCC(=O)N1CCC(NC(=O)[C@H](CC(C)C)NC(=O)NNC(=O)[C@H](Cc2ccccc2)NC(=O)[C@@H](NC(=O)[C@H](CC(N)=O)NC(=O)[C@@H](CCCCNC(=O)CN2CCN(CC(=O)O)CCN(CC(=O)O)CCN(CC(=O)O)CC2)NC(=O)[C@@H](Cc2ccc(O)cc2)NC(=O)CCOCCOCCNC(=O)CCc2ccc(C)cc2)[C@@H](C)O)(C(=O)N[C@H](Cc2c[nH]c3ccccc23)C(N)=O)CC1` [Compound 357] ({Hydrocinnamoyl(4-Me)-PEG2}-[dY][dK](DOTA)NTF[azaGly]L[Api](Sar)[dW]-NH2), more than 8.00.

Regarding `Cc1ccc(CNCC(=O)N2CCC(NC(=O)[C@H](CC(C)C)n3cc([C@H](Cc4ccccc4)NC(=O)[C@H](N)CCCCNC(=O)CN4CCN(CC(=O)O)CCN(CC(=O)O)CCN(CC(=O)O)CC4)nn3)(C(=O)N[C@@H](Cc3c[nH]c4ccccc34)C(N)=O)CC2)cc1F` [Compound 39], the pKi was less than 7.00. Under `Cc1ccc(CNCC(=O)N2CCC(NC(=O)[C@H](CC(C)C)NC(=O)NNC(=O)[C@H](Cc3cccc(F)c3)NC(=O)[C@@H](NC(=O)[C@H](CC(N)=O)NC(=O)[C@H](CCC(=O)O)NC(=O)[C@H]3CC[C@H](CNC(=O)CN4CCN(CC(=O)O)CCN(CC(=O)O)CCN(CC(=O)O)CC4)CC3)[C@@H](C)O)(C(=O)N[C@@H](Cc3c[nH]c4ccccc34)C(N)=O)CC2)cc1F` [Compound 160] ({DOTA-Trx}-ENT[Phe(3-F)][azaGly]L[Api](Gly(N-(3-F-4-Me-benzyl)))W-NH2) stands more than 8.00; under `Cc1ccc(CNCC(=O)N2CCC(NC(=O)[C@H](CC(C)C)NC(=O)NNC(=O)[C@H](Cc3ccccc3)NC(=O)[C@@H](NC(=O)[C@H](CC(N)=O)NC(=O)[C@@H](Cc3ccncc3)NC(=O)[C@@H](Cc3ccc(O)cc3)NC(=O)CNC(=O)CN3CCN(CC(=O)O)CCN(CC(=O)O)CCN(CC(=O)O)CC3)[C@@H](C)O)(C(=O)N[C@@H](Cc3ccc(O)cc3)C(N)=O)CC2)cc1F` [Compound 193] ({DOTA}-G[dY][d4Pal]NTF[azaGly]L[Api](Gly(N-(3-F-4-Me-benzyl)))Y-NH2), more than 8.00. Under `Cc1ccc(CNCC(=O)N2CCC(NC(=O)[C@H](CC(C)C)NC(=O)NNC(=O)[C@H](Cc3ccccc3)NC(=O)[C@@H](NC(=O)[C@H](CC(N)=O)NC(=O)[C@@H](Cc3c[nH]c4ccccc34)NC(=O)[C@@H](Cc3ccc(O)cc3)NC(=O)CCCCCNC(=O)CN3CCN(CC(=O)O)CCN(CC(=O)O)CCN(CC(=O)O)CC3)[C@@H](C)O)(C(=O)N[C@H](Cc3c[nH]c4ccccc34)C(N)=O)CC2)cc1F` [Compound 383] ({DOTA-Ahx}-[dY][dW]NTF[azaGly]L[Api](Gly(N-(3-F-4-Me-benzyl)))[dW]-NH2) stands more than 8.00; under `Cc1ccc(CNCC(=O)N2CCC(NC(=O)[C@H](CC(C)C)NC(=O)NNC(=O)[C@H](Cc3ccccc3)NC(=O)[C@H]3CC[C@H](CNC(=O)[C@@H](CCC(=O)O)NC(=O)CN4CCN(CC(=O)O)CCN(CC(=O)O)CCN(CC(=O)O)CC4)CC3)(C(=O)N[C@@H](Cc3c[nH]c4ccccc34)C(N)=O)CC2)cc1F` [Compound 166] ({DOTA}-[dE][Trx]F[azaGly]L[Api](Gly(N-(3-F-4-Me-benzyl)))W-NH2), more than 8.00. Under `Cc1ccc(CNCC(=O)N2CCC(NC(=O)c3ccnc(CNC(=O)[C@H](Cc4ccccc4)NC(=O)CCCCCNC(=O)CN4CCN(CC(=O)O)CCN(CC(=O)O)CCN(CC(=O)O)CC4)c3)(C(=O)N[C@@H](Cc3c[nH]c4ccccc34)C(N)=O)CC2)cc1F` [Compound 136] stands less than 7.00.

With `Cc1ccc(CNCC(=O)N2CCC(NC(=O)[C@H](CC(C)C)NC(=O)NNC(=O)[C@H](Cc3ccncc3)NC(=O)[C@@H](NC(=O)[C@H](CC(N)=O)NC(=O)c3ccc(CNC(=O)CN4CCN(CC(=O)O)CCN(CC(=O)O)CCN(CC(=O)O)CC4)cc3)[C@@H](C)O)(C(=O)N[C@@H](Cc3ccncc3)C(N)=O)CC2)cc1F` [Compound 259] ({DOTA-4Amb}-NT[4Pal][azaGly]L[Api](Gly(N-(3-F-4-Me-benzyl)))[4Pal]-NH2), the negative-log Ki (pKi) was 7.00 to 8.00. Under `CCCCCCCC(=O)N[C@@H](CCCCNC(=O)CN1CCN(CC(=O)O)CCN(CC(=O)O)CCN(CC(=O)O)CC1)C(=O)N[C@@H](CC(N)=O)C(=O)N[C@H](C(=O)N[C@@H](Cc1ccccc1)C(=O)NNC(=O)N[C@@H](CC(C)C)C(=O)NC1(C(=O)N[C@@H](Cc2ccncc2)C(N)=O)CCN(C(=N)N)CC1)[C@@H](C)O` [Compound 226] (Octanoyl-K(DOTA)NTF[azaGly]L[Api(1-amidino)][4Pal]-NH2) stands 7.00 to 8.00; under `Cc1ccc(CNCC(=O)N2CCC(NC(=O)[C@H](CC(C)C)NC(=O)NNC(=O)[C@H](Cc3ccccc3)NC(=O)[C@H]3CC[C@H](CNC(=O)c4ccc(CNC(=O)CN5CCN(CC(=O)O)CCN(CC(=O)O)CCN(CC(=O)O)CC5)cc4)CC3)(C(=O)N[C@@H](Cc3c[nH]c4ccccc34)C(N)=O)CC2)cc1F` [Compound 110] ({DOTA-4Amb-Trx}-F[azaGly]L[Api](Gly(N-(3-F-4-Me-benzyl)))W-NH2), more than 8.00. Under `Cc1ccc(CNCC(=O)N2CCC(NC(=O)[C@H](CC(C)C)NC(=O)NNC(=O)[C@H](Cc3ccccc3)NC(=O)CCCCCNC(=O)[C@H](Cc3ccc4ccccc4c3)NC(=O)[C@@H](Cc3ccc(O)cc3)NC(=O)CN3CCN(CC(=O)O)CCN(CC(=O)O)CCN(CC(=O)O)CC3)(C(=O)N[C@@H](Cc3ccncc3)C(N)=O)CC2)cc1F` [Compound 286] ({DOTA}-[dY][2Nal][Ahx]F[azaGly]L[Api](Gly(N-(3-F-4-Me-benzyl)))[4Pal]-NH2) stands more than 8.00; under `Cc1ccc(CNCC(=O)N2CCC(NC(=O)[C@H](CC(C)C)NC(=O)NNC(=O)[C@H](Cc3ccccc3)NC(=O)[C@@H](NC(=O)[C@H](CC(N)=O)NC(=O)[C@@H](Cc3c[nH]c4ccccc34)NC(=O)[C@@H](Cc3c[nH]cn3)NC(=O)[C@@H](Cc3ccc(O)cc3)NC(=O)CCCCCNC(=O)CN3CCN(CC(=O)O)CCN(CC(=O)O)CCN(CC(=O)O)CC3)[C@@H](C)O)(C(=O)N[C@@H](Cc3ccncc3)C(N)=O)CC2)cc1F` [Compound 107] ({DOTA-Ahx}-[dY][dH][dW]NTF[azaGly]L[Api](Gly(N-(3-F-4-Me-benzyl)))[4Pal]-NH2), more than 8.00. The result for `Cc1ccc(CNCC(=O)N2CCC(NC(=O)c3ccc(-c4ccccc4OCCNC(=O)[C@H](Cc4ccccc4)NC(=O)CCCCCNC(=O)CN4CCN(CC(=O)O)CCN(CC(=O)O)CCN(CC(=O)O)CC4)cc3)(C(=O)N[C@@H](Cc3c[nH]c4ccccc34)C(N)=O)CC2)cc1F` [Compound 283] reads 7.00 to 8.00; that for `Cc1ccc(CNCC(=O)N2CCC(NC(=O)[C@H](CC(C)C)NC(=O)NNC(=O)[C@H](Cc3ccccc3)NC(=O)CN3CCC(NC(=O)CN4CCN(CC(=O)O)CCN(CC(=O)O)CCN(CC(=O)O)CC4)CC3)(C(=O)N[C@@H](Cc3ccc(O)cc3)C(N)=O)CC2)cc1F` [Compound 247] ({DOTA}-[X1]F[azaGly]L[Api](Gly(N-(3-F-4-Me-benzyl)))Y-NH2), more than 8.00; that for `COc1ccc(CNCC(=O)N2CCC(NC(=O)[C@H](CC(C)C)NC(=O)NNC(=O)[C@H](Cc3ccccc3)NC(=O)[C@@H](NC(=O)[C@H](CC(N)=O)NC(=O)[C@@H](Cc3c[nH]c4ccccc34)NC(=O)[C@@H](Cc3ccc(O)cc3)NC(=O)CCCCCNC(=O)CN3CCN(CC(=O)O)CCN(CC(=O)O)CCN(CC(=O)O)CC3)[C@@H](C)O)(C(=O)N[C@@H](Cc3ccccc3)C(N)=O)CC2)cc1` [Compound 140] ({DOTA-Ahx}-[dY][dW]NTF[azaGly]L[Api](Gly(Nα-4-MeO-benzyl))F-NH2), more than 8.00. Consider `Cc1ccc(CNCC(=O)N2CCC(NC(=O)[C@H](CC(C)C)NC(=O)NNC(=O)[C@H](Cc3ccccc3)NC(=O)[C@@H](NC(=O)[C@H](CCC(=O)O)NC(=O)CN3CCC(NC(=O)CN4CCN(CC(=O)O)CCN(CC(=O)O)CCN(CC(=O)O)CC4)CC3)[C@@H](C)O)(C(=O)N[C@@H](Cc3c[nH]c4ccccc34)C(N)=O)CC2)cc1F` [Compound 234] ({DOTA}-[X1]ETF[azaGly]L[Api](Gly(N-(3-F-4-Me-benzyl)))W-NH2), for which the pKi is more than 8.00.

As for `Cc1ccc(CNCC(=O)N2CCC(NC(=O)[C@H](CC(C)C)NC(=O)NNC(=O)[C@H](Cc3ccccc3)NC(=O)CCCCCNC(=O)[C@H](Cc3ccc4ccccc4c3)NC(=O)[C@H](Cc3ccc(O)cc3)NC(=O)CNC(=O)CN3CCN(CC(=O)O)CCN(CC(=O)O)CCN(CC(=O)O)CC3)(C(=O)N[C@@H](Cc3c[nH]c4ccccc34)C(N)=O)CC2)cc1F` [Compound 307] ({DOTA}-GY[2Nal][Ahx]F[azaGly]L[Api](Gly(N-(3-F-4-Me-benzyl)))W-NH2), the pKi is more than 8.00.
